Test: Heat-induced release of drug surrogate (alcohol 11 or amine 12) from linkers in methanol, HPLC quantification
Format: physicochemical
Conditions: for Heat-induced release of 11 or 12 (result in words, spans all time columns) / % release after heating (55° C.) at time (h) 0.25 / % release after heating (55° C.) at time (h) 0.5 / % release after heating (55° C.) at time (h) 0.75 / % release after heating (55° C.) at time (h) 1 / % release after heating (55° C.) at time (h) 2 / % release after heating (55° C.) at time (h) 3 / % release after heating (55° C.) at time (h) 24 h: methanol ca. 0.01 M; for Heat-induced release of 11 or 12 (result in words, spans all time columns): 55° C. up to 24 h and rt 3.5 h; for % release after heating (55° C.) at time (h) 0.25 / % release after heating (55° C.) at time (h) 0.5 / % release after heating (55° C.) at time (h) 0.75 / % release after heating (55° C.) at time (h) 1 / % release after heating (55° C.) at time (h) 2 / % release after heating (55° C.) at time (h) 3 / % release after heating (55° C.) at time (h) 24 h / % release at rt, 3.5 h: release of alcohol 11, mean ± SD, n = 3; for % release after heating (55° C.) at time (h) 0.25: 0.25 h; for % release after heating (55° C.) at time (h) 0.5: 0.5 h; for % release after heating (55° C.) at time (h) 0.75: 0.75 h; for % release after heating (55° C.) at time (h) 1: 1 h; for % release after heating (55° C.) at time (h) 2: 2 h; for % release after heating (55° C.) at time (h) 3: 3 h; for % release at rt, 3.5 h: room temperature control
Procedure: Methanol (MeOH) was used as a solvent to provide a protic solvent capable of hydrogen bonding. The amine-containing linker compounds, formed on Boc-deprotection with basic work-up (compounds 4.1-3, 8.1-2, 9, 10), were diluted with MeOH (2 mL, ˜0.01 M). An aliquot was removed to serve as a room temperature control. Heat was applied to the MeOH solutions using an oil bath. The temperature was set at 55° C., and the solutions were heated for a total of 24 h. Aliquots were taken at t=0.25, 0.50, 0.75, 1, 2, 3, and 24 h into the reaction. On sampling, the aliquots were, immediately stored at −5° C. On completion of the experiment, the samples were warmed to room temperature, filtered and dried under reduced pressure (3.5 h duration) and then returned to −5° C. Each sample was then removed individually from the freezer and diluted with 400 μL CH2Cl2 before injecting 50 μL into an HPLC fitted with a normal phase silica column (Waters Nova-Pak HR Silica, 6 μm, 60 Å, 3.9×300 mm prep column; 1% MeOH in CH2Cl2 with 0.1% Et3N). HPLC analysis enabled quantification of released 11 or 12. Schemes 3 and 4 depict the intramolecular cyclization processes to release the drug surrogate (e.g., 11 or 12). […] FIG. 12 graphically illustrates the heat-induced release of alcohol 11 (Table 1). The substrates were heated as methanol solutions (ca. 0.01 M) at 55° C. for the indicated times as described above.

Compound	Heat-induced release of 11 or 12 (result in words, spans all time columns)	% release after heating (55° C.) at time (h) 0.25 [%]	% release after heating (55° C.) at time (h) 0.5 [%]	% release after heating (55° C.) at time (h) 0.75 [%]	% release after heating (55° C.) at time (h) 1 [%]	% release after heating (55° C.) at time (h) 2 [%]	% release after heating (55° C.) at time (h) 3 [%]	% release after heating (55° C.) at time (h) 24 h [%]	% release at rt, 3.5 h [%]
C=CCNCCNC(=O)OCCc1c2ccccc2cc2ccccc12 [Compound 10, 2-(anthracen-9-yl)ethyl(2-(allylamino)ethyl)carbamate]	no reaction								
C=CCNCCC(C)(C)CCC(=O)OCCc1c2ccccc2cc2ccccc12 [Compound 20, 2-(anthracen-9-yl)ethyl 6-(allylamino)-4,4-dimethylhexanoate]		2.0 ± 0.1	2.2 ± 0.1	2.7 ± 0.1	3.3 ± 0.4	4.1 ± 0.3	5.2 ± 0.8	24.7 ± 3.9	1.8 ± 0.2
C=CCNCCCC(=O)NCCc1c2ccccc2cc2ccccc12 [Compound 9, 4-(allylamino)-N-(2-(anthracen-9-yl)ethyl)butanamide]	no reaction								
C=CCNCCC(C)(C)COC(=O)OCCc1c2ccccc2cc2ccccc12 [Compound 23, 4-(allylamino)-2,2-dimethylbutyl(2-(anthracen-9-yl)ethyl) carbonate]		1.8 ± 0.4	2.3 ± 0.5	2.9 ± 0.1	4.0 ± 0.3	5.7 ± 1.0	7.6 ± 0.3	36.6 ± 0.3	0.7 ± 0.1

Next, values leading:

Heat-induced release of 11 or 12 (result in words, spans all time columns)	% release after heating (55° C.) at time (h) 0.25 [%]	% release after heating (55° C.) at time (h) 0.5 [%]	% release after heating (55° C.) at time (h) 0.75 [%]	% release after heating (55° C.) at time (h) 1 [%]	% release after heating (55° C.) at time (h) 2 [%]	% release after heating (55° C.) at time (h) 3 [%]	% release after heating (55° C.) at time (h) 24 h [%]	% release at rt, 3.5 h [%]	Compound
	24.6 ± 3.1	29.2 ± 1.7	33.4 ± 2.5	36.6 ± 2.6	44.4 ± 3.7	50.2 ± 4.2	94.0 ± 1.8	20.2 ± 3.1	C=CCNCCCC(=O)OCCc1c2ccccc2cc2ccccc12 [Compound 4.1, 2-(anthracen-9-yl)ethyl 4-(allylamino)butanoate]
	23.5 ± 1.9	28.9 ± 1.7	32.4 ± 4.0	36.7 ± 4.8	48.3 ± 5.7	57.0 ± 6.9	68.9 ± 3.0	18.8 ± 2.3	C=CCNCCOC(=O)OCCc1c2ccccc2cc2ccccc12 [Compound 8.1, 2-(allylamino)ethyl(2-(anthracen-9-yl)ethyl) carbonate]
	20.9 ± 1.9	21.6 ± 3.5	23.0 ± 3.0	25.0 ± 2.1	30.5 ± 1.3	36.5 ± 1.2	75.7 ± 3.2	17.0 ± 4.5	C=CCNCCCCC(=O)OCCc1c2ccccc2cc2ccccc12 [Compound 4.2, 2-(anthracen-9-yl)ethyl 5-(allylamino)pentanoate]
	12.0 ± 0.8	14.1 ± 0.7	16.4 ± 1.0	18.0 ± 0.7	24.8 ± 1.1	29.0 ± 1.0	62.1 ± 5.6	9.6 ± 1.1	C=CCNCCCOC(=O)OCCc1c2ccccc2cc2ccccc12 [Compound 8.2, 3-(allylamino)propyl(2-(anthracen-9-yl)ethyl) carbonate]
	2.1 ± 1.6	1.8 ± 1.9	2.1 ± 2.2	2.1 ± 1.8	3.1 ± 2.9	3.6 ± 3.0	10.4 ± 3.8	1.7 ± 2.0	C=CCNCCCCCC(=O)OCCc1c2ccccc2cc2ccccc12 [Compound 4.3, 2-(anthracen-9-yl)ethyl 6-(allylamino)hexanoate]

Reference: patent US9849193B2, “Nanoparticles for drug delivery” (University of Louisville Research Foundation, Inc., priority 2013, dated 2017)
